From article PMC12117998, “First Steps toward the Design of Peptides that Influence the Intracellular Palmitoylation Machinery” (Chembiochem, 2025)
No end group written: not given here.

Columns and labels:
human 6His‐ZDHHC7 = target: T1, human 6His‐ZDHHC7 (Homo sapiens, UniProt Q9NXF8); assay: In vitro palmitoylation assay (LC‐MS); format: biochemical; details: 50 μM CF‐labeled peptide, 37 °C, LC‐MS (Figure 4); for palmitoylation in presence of ZDHHC7: 100 nM ZDHHC7, 100 μM palmitoyl‐CoA, pH 7.0, 2 h; for palmitoylation in absence of ZDHHC7 (auto‐palmitoylation): 100 μM palmitoyl‐CoA, no ZDHHC7, pH 7.0, 2 h
T1 construct: 6His; purchased Proteintech
T1 sequence (Q9NXF8 1-308): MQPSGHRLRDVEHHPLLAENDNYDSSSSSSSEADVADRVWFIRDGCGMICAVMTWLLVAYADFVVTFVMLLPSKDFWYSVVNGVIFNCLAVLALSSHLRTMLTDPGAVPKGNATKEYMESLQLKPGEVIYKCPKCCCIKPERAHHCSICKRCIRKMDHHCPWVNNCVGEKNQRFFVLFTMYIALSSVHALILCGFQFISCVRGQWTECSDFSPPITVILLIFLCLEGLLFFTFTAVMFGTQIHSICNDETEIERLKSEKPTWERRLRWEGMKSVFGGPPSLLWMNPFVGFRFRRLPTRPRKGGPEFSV
Experimental: The 50 μM CF‐labeled peptides were incubated with 100 nM human 6His‐ZDHHC7 (Proteintech) and 100 μM palmitoyl‐CoA (Santa Cruz Biotechnology) in reaction buffer (50 mM HEPES, 150 mM NaCl, 1 mM EDTA, 1 mM (tris(2‐carboxyethyl)phosphine) (TCEP), 0.3 mM DDM, pH 7.0) for 2 h at 37 °C. Control reactions without ZDHHC7 or palm‐CoA were incubated with the appropriate volume of reaction buffer. Afterward, the reaction was centrifuged for 5 min at 13000 rpm. The precipitate was dissolved in DMSO/ACN (3:2, v/v). To enrich the peptide from the supernatant, C8 ZipTips were used. All samples were analyzed on the LC MS‐8060 triple quadrupole ESI‐MS (Shimadzu). The fluorescence intensity (λex = 493 nm, λem = 517 nm) of the samples was measured on an EC 160/2 NUCLEODUR 300‐5 C18 ec column using linear gradients from 20% to 70 % ACN in ddH2O + 0.1% FA over 7 min.

HeLa cells [1] = assay: Cellular uptake by flow cytometry; format: cell-based; details: 30 min, serum-free medium, 37 °C, flow cytometry
Experimental: (§1) HeLa (90,000), MDA‐MB‐231 (120,000), and HFF‐1 (125,000) cells were seeded into a 24‐well plate. Cells were treated with the desired concentration of CF‐labeled peptide diluted in the appropriate serum‐free medium for 30 min at 37 °C and 5% CO2. Afterward, cells were washed once with PBS, detached from the plate using indicator‐free trypsin/EDTA and resuspended in indicator‐free culture medium. The cell mixture was measured on the Guava easyCyte flow cytometer (Merck) using the GRN‐B (520/30) detector.
CMA was synthesized and kindly provided by Azizi et al.^[ [33] ^] Cells were either treated with 20 μM CMA diluted in serum‐free media or 0.1% DMSO diluted in serum‐free media for 6 h at 37 °C with 5% CO2. Next, cells were washed once with serum‐free medium and 5 μM CF‐labeled peptides diluted in serum‐free medium were incubated for 30 min. Control cells were only treated with dimethylsulfoxide (DMSO) or 20 μM CMA.
For the preincubation assay, cells were either treated with 5 μM DC‐2 diluted in serum‐free medium or only serum‐free medium for 30 min at 37 °C and 5% CO2. Afterward, cells were washed once with serum‐free medium and treated with 5 μM CF‐labeled DC‐2 for 30 min at 37 °C and 5% CO2.
To block cell surface thiols, cells were incubated with either serum‐free medium or 1.2 mM 5,5′‐dithiobis‐(2‐nitrobenzoic acid) (Ellman's reagent, DTNB) diluted in serum‐free medium for 5 min. Next, untreated cells were treated with 1 μM of CF‐labeled DC‐2 or DC‐2dis diluted in serum‐free medium and DTNB‐pretreated cells with 1 μM of CF‐labeled DC‐2 or DC‐2dis and 1.2 mM DTNB in serum‐free medium for 30 min at 37 °C and 5% CO2 as described by Aubry et al.^[ [47] ^]

MDA‐MB‐231 [2] = assay: Cellular uptake by flow cytometry; format: cell-based; details: MDA‐MB‐231, 30 min, 5 μM CF‐labeled peptides, serum-free medium, 37 °C, n ≥ 3 (Figure 3E)
Experimental: as §1

HFF‐1 cells [3] = assay: Cellular uptake by flow cytometry; format: cell-based, human; details: HFF‐1, 30 min, 5 μM CF‐labeled peptides, serum-free medium, 37 °C, n ≥ 3 (Figure 3F)
Experimental: as §1

HeLa cells [4] = assay: Live‐cell fluorescence imaging of peptide uptake; format: cell-based; details: 30 min, 5 μM CF‐labeled peptides, confocal laser scanning microscopy (Figure 3G)
Experimental: HeLa (40,000), MDA‐MB‐231 (30,000), or HFF1 (55,000) cells were seeded into an 8‐well ibidi. Cells were treated for 30 min with 5 μM of CF‐labeled peptide diluted in the appropriate serum‐free media. The cell nuclei were stained with the Hoechst 33342 nuclear dye for the last 10 min of the total incubation time. Afterward, cells were washed three to four times using serum‐free medium and finally, medium containing FBS was added for the microscopy. Live fluorescence microscopy analyses were performed on the LSM 980 with Airyscan 2 Inverse Confocal Laser Scanning Microscope (Carl Zeiss) on a 63X Plan‐Apochromat oil objective (NA 1.4, Zeiss) at 37 °C and 5% CO2 or on the BZ‐X810 (Keyence) using a 60X Plan‐Apochromat oil objective (NA 1.4, Keyence). Images were cropped and processed using Fiji.
Hela cells (15,000) were seeded into a 96-well plate. Cells were treated with suitable peptide concentrations diluted in the corresponding serum-free culture medium. After 1 h peptide incubation under standard growth conditions, the positive control was either directly treated with lysis solution or the supernatant was exchanged for serum-free culture medium and the plate was incubated for further 5 h under growing conditions. The CytoTox-ONE™ Reagent was added and incubated at RT for 10 minutes. Finally, the Stop Solution was added and the fluorescence was measured at 595 nm (λex = 550 nm) on an infinite M200 plate reader (Tecan) and normalized to the positive control cells.
Red blood cells (RBCs) were washed three times in PBS by centrifug ing at 4 °C and 3,000 x g for 5 min and diluted to 5% in PBS. The desired peptide concentrations diluted in PBS were added into a 96-well plate. Next, 5% RBCs in PBS were added into the wells and incubated for 24 h at 37 °C and 5% CO2. As a positive control, RBCs were mixed with 10% Triton X-100 in PBS. […] Lastly, the absorption (λ=560 nm) was measured on the infinite M200 plate reader (Tecan). For the evaluation, the measured absorption of the Triton-X-100 treatment was set to a hemolysis rate […]

HeLa cells [5] = assay: Cell viability assay (resazurin); format: cell-based; details: 24 h; for cytotoxicity (cell viability): CF‐labeled peptides, n = 3 (Figure 3A); for concentration up to which peptide is not toxic (cell viability): unlabeled peptides in serum-free medium, untreated control = 100%, n = 3 (Figure 2A)
Experimental: (§2) HeLa (13,000), MDA‐MB‐231 (26,000), HFF‐1 (16,000) cells, mEGFP‐HRas (18,000), and SW480 and SW620 (15,000) were seeded into a 96‐well plate. Cells were treated with suitable peptide concentrations diluted in the corresponding serum‐free culture medium. After 24 h incubation under standard growth conditions, the cells were washed once with PBS. The positive control was treated for 10 min with 70% EtOH. To test the viability, cells were treated with a resazurin solution (In Vitro Toxicology Assay Kit, resazurin based, Sigma) and incubated for a further 1–2 h. The product resorufin was measured at 595 nm (λex = 550 nm) on an infinite M200 plate reader (Tecan) and normalized to the untreated negative control cells.

MDA‐MB‐231 [6] = assay: Cell viability assay (resazurin); format: cell-based; details: MDA‐MB‐231, 24 h, CF‐labeled peptides, n = 3 (Figure 3B)
Experimental: as §2

HFF‐1 cells [7] = assay: Cell viability assay (resazurin); format: cell-based, human; details: HFF‐1, 24 h, CF‐labeled peptides, n = 3 (Figure 3C)
Experimental: as §2

MCF‐10 A breast spheroid = assay: Confocal time‐lapse imaging of spheroids; format: cell-based, human; details: 10‐day‐old MCF‐10 A spheroids, 10 μM CF‐labeled peptide, imaged every 45 s for 20 min, n ≥ 2 (Figure 7)
Experimental: Spheroids from single MCF10‐A cells were generated for 10 days as described in ref. [66]. For further analyses, spheroids were isolated from EHS matrix through incubation in 2 mL ice‐cold cell recovery solution (BD Biosciences) for 30 min (4 °C). Next, spheroids were washed with fresh EGF‐free medium and individually picked under a stereo microscope for seeding onto 35 mm cell culture dishes with microscopic glass bottoms (Cover Slip, 24 × 24 mm, #1.5 HP, Menzel‐Gläser). Spheroids adhered to glass substrates for 15 min (RT) and were subsequently covered with 0.9 mL fresh EGF‐free growth medium.
Live‐cell imaging was performed at 37 °C and 5% CO2 (cell incubator XL, Zeiss, Germany) with an inverse confocal laser scanning microscope (LSM880 with Airyscan detector) that used a 40x LD C‐Apochromat water immersion objective (NA 1.1, Zeiss). Before addition of peptides, control images were taken. Subsequently, peptide was added to a final concentration of 10 μM and spheroids immediately imaged every 45 s for 20 min. The observed plane was at the equatorial plane of a spheroid, where the diameter was largest. Images were taken with Fast Airyscan and subsequent processing using the ZEN 2.3 black software (Zeiss). Z‐stacks were taken right after the time series in 1 μm steps with the same microscopic settings.

[8] = 5 μM CF‐labeled peptides, n ≥ 3 (Figure 3D, 5C)
[9] = 10 μM CF‐labeled peptides, n = 3 (Figure 2B)

Substance	palmitoylation in presence of ZDHHC7 (human 6His‐ZDHHC7)	palmitoylation in absence of ZDHHC7 (auto‐palmitoylation) (human 6His‐ZDHHC7)	cellular uptake (in words) (HeLa cells [1]; [8])	cellular uptake (in words) (HeLa cells [1]; [9])	cellular uptake (in words) (MDA‐MB‐231 [2])	cellular uptake (in words) (HFF‐1 cells [3])	intracellular uptake pattern (HeLa cells [4])	cytotoxicity (cell viability) (HeLa cells [5])	concentration up to which peptide is not toxic (cell viability) (HeLa cells [5])	cytotoxicity (cell viability) (MDA‐MB‐231 [6])	cytotoxicity (cell viability) (HFF‐1 cells [7])	infiltration of basement membrane (BM)‐covered spheroids (MCF‐10 A breast spheroid)
GLRKRLRKFRNKRMDHHCPW-NH2 [DC‐11, CPP sC18* fused to the DHHC motif derived from ZDHHC21]	palmitoylated	auto‐palmitoylation	internalized to a higher extent compared to DC‐4	highest uptake	internalized to a higher extent compared to DC‐4	internalized to a higher extent compared to DC‐4	diffuse cytosolic pattern	–	–	–	–	–
GLRKRLRKFRNKEFDHHCPW-NH2 [DC‐4, CPP sC18* fused to the DHHC motif derived from ZDHHC5]	only a minor peak of palmitoylated DC‐4	no auto‐palmitoylation	overall weaker uptake	internalized to less extent	–	–	–	–	–	–	–	–
GLRKRLRKFRNKKMDHHAPW-NH2 [DA‐1, control peptide in which the cysteine of the DHHC motif of DC‐2 was exchanged by an alanine]	–	–	–	–	–	–	–	not toxic	> 100 µM	not toxic	not toxic	did not further enter cells of the spheroid
GLRKRLRKFRNK-NH2 [sC18*, cell‐penetrating peptide (CPP) sC18*, origin CAP18, control peptide, reference compound]	–	–	–	–	–	–	–	not toxic	> 100 µM	not toxic	not toxic	–
